Data as given in publication PMC9317861, “In Vitro Assessment of Pesticides Toxicity and Data Correlation with Pesticides Physicochemical Properties for Prediction of Toxicity in Gastrointestinal and Skin Contact Exposure” (Toxics, 2022).
Like-named read-outs stand apart in the source and are kept apart here.

Key:
[1] = test system: A431 cells; assay: Alamar Blue cell viability/cytotoxicity assay, A431; assay type: cell-based; conditions: Homo sapiens
Source text: (§1) To assess the cytotoxic activity of GLY, IMD and IMZ, six cell lines, namely Caco-2 (human epithelial colorectal adenocarcinoma; Cell Lines Service (CLS), Eppelheim, Germany), HepG2 (human hepatocellular carcinoma; ATCC, Rockville, USA), A431 (human epidermoid carcinoma; CLS, Eppelheim, Germany), HaCaT (human keratinocytes, CLS, Eppelheim, Germany), SK-MEL-5 (human skin melanoma; CLS, Eppelheim, Germany), and RAW 264.7 (mouse macrophages, Abelson murine leukaemia virus-induced tumour; CLS, Eppelheim, Germany) cells, were used. All cell lines were cultured in complete culture media, composed of Dulbecco’s Modified Eagle Media (DMEM), supplemented with 1 mM L-glutamine, 10% (v/v) foetal bovine serum (FBS), and antibiotics (penicillin at 100 U/mL, and streptomycin at 100 μg/mL) and maintained in an incubator (5% CO2/95% air; 37 °C, controlled humidity). Cells were grown, in T25 culture flasks, to near confluence.
(§2) Near confluence, all cell lines, except RAW 264.7 cells, were subjected to enzymatic treatment (trypsin-EDTA) for detachment and subculture, as described by Andreani et al. and by Silva et al., which was stopped using complete culture medium (1:1, trypsin:culture media) as soon as cells were detached. RAW 264.7 cells were scratched off from the culture flasks using a cell scratcher (Orange Scientific; Braine-L’Alleud, Belgium), handling was performed, as described by Silva et al.. Once detached from the flasks, cells were gently separated and re-suspended using a Pasteur pipette, counted using an automated cell counter (TC10™, BIORAD, Lisbon, Portugal). Then, cells were re-suspended in fresh culture media (at 5 × 10^4 cells/mL) and seeded into 96-well microplates (100 µL/well) which were maintained in an incubator, for 48 h (to adhere and stabilize) before being used. For other details, see [24, 25].
(§3) Alamar Blue® (AB) assay was performed to assess the in vitro effect of the pesticides on cell viability. In summary, cells seeded into 96-well microplates were treated with various concentrations of the pesticides (GLY: 0–1 mM; IMD: 0–1 mM; IMZ: 0–0.3 mM). Test solutions were prepared in FBS-free culture media by diluting the appropriate volume of respective stock solution. A stock solution of GLY was prepared in water (at 40 mM), and stock solutions of IMD and IMZ were prepared in DMSO (at 20 mM). After 24 h or 48 h of exposure, the test solutions were removed and immediately replaced with Alamar Blue solution (100 µL/well; 10% (v/v) in FBS-free medium), followed by an additional 5 h incubation. Then, absorbance was read at 570 and 620 nm using a microplate reader (Multiskan EX; MTX Lab Systems, Inc., Bradenton, FL, USA), and the percentage of AB reduction was calculated according to manufacturers’ instructions, as described. Cell viability was calculated and expressed as percentage of control cells (non-exposed cells).

[2] = test system: HaCaT cells; assay: Alamar Blue cell viability/cytotoxicity assay, HaCaT; assay type: cell-based; conditions: Homo sapiens
Source text: as §1, §2, §3

[3] = test system: SK-MEL-5 cells; assay: Alamar Blue cell viability/cytotoxicity assay, SK-MEL-5; assay type: cell-based, human; conditions: for IC50: Homo sapiens
Procedure: (§4) Cells were grown, in T25 culture flasks, to near confluence.
as §2, §3

[4] = test system: Caco-2 cells; assay: Alamar Blue cell viability/cytotoxicity assay, Caco-2; assay type: cell-based, human; conditions: for IC50: Homo sapiens; for cell viability reduction: Caco-2, 300 µM
Procedure: as §4, §2, §3

[5] = test system: HepG2 cells; assay: Alamar Blue cell viability/cytotoxicity assay, HepG2; assay type: cell-based, human; conditions: for IC50: Homo sapiens
Source text: as §1, §2, §3

[6] = test system: RAW 264.7 cells; assay: Alamar Blue cell viability/cytotoxicity assay, RAW 264.7; assay type: cell-based; conditions: Mus musculus
Source text: as §1, §2, §3

[7] = test system: Caco-2, HepG2, A431, HaCaT, SK-MEL-5 and RAW 264.7 cells; assay: Alamar Blue cell viability, all tested cell lines; assay type: cell-based; conditions: up to 1 mM (highest tested concentration)
Source text: To assess the cytotoxic activity of GLY, IMD and IMZ, six cell lines, namely Caco-2 (human epithelial colorectal adenocarcinoma; Cell Lines Service (CLS), Eppelheim, Germany), HepG2 (human hepatocellular carcinoma; ATCC, Rockville, USA), A431 (human epidermoid carcinoma; CLS, Eppelheim, Germany), HaCaT (human keratinocytes, CLS, Eppelheim, Germany), SK-MEL-5 (human skin melanoma; CLS, Eppelheim, Germany), and RAW 264.7 (mouse macrophages, Abelson murine leukaemia virus-induced tumour; CLS, Eppelheim, Germany) cells, were used. […]
Near confluence, all cell lines, except RAW 264.7 cells, were subjected to enzymatic treatment (trypsin-EDTA) for detachment and subculture, as described by Andreani et al. and by Silva et al., which was stopped using complete culture medium (1:1, trypsin:culture media) as soon as cells were detached. […] Once detached from the flasks, cells were gently separated and re-suspended using a Pasteur pipette, counted using an automated cell counter (TC10™, BIORAD, Lisbon, Portugal). […]
Alamar Blue® (AB) assay was performed to assess the in vitro effect of the pesticides on cell viability. […] Then, absorbance was read at 570 and 620 nm using a microplate reader (Multiskan EX; MTX Lab Systems, Inc., Bradenton, FL, USA), and the percentage of AB reduction was calculated according to manufacturers’ instructions, as described. […]

[8] = test system: Caco-2 cells; conditions: cited from earlier work; for IC50: Caco-2, 24 h
[9] = test system: HepG2 cells; conditions: cited from earlier work
[10] = test system: SK-MEL-2; parameters: method as in PMID 23535362; conditions: SK-MEL-2, 72 h exposure; cited from earlier work
[11] = test system: HaCaT cells; conditions: cited from earlier work
[12] = cited from earlier work
[13] = Alamar Blue cell viability/cytotoxicity assay, SK-MEL-5; assay type: cell-based, human; conditions: human; SK-MEL-5, 50 µM, 48 h
Procedure: as §4, §2, §3

[14] = Alamar Blue cell viability/cytotoxicity assay, Caco-2; assay type: cell-based, human; conditions: human, 48 h
Procedure: as §4, §2, §3

[15] = n-octanol/water; Pubchem and INCHEM; cited from earlier work
[16] = Figure 4A; cited from earlier work
[17] = cited from earlier work; remark: listed apart in the source
[18] = test system: CYP3A4; parameters: method as in PMID 19070657; conditions: cited from earlier work

Structure (SMILES): O=C(O)CNCP(=O)(O)O [Glyphosate, N-phosphonomethyl-glycine]
- IC50 ([1]; A-431, 24 h): > 1000 µM
- IC50 ([1]; A-431, 48 h): > 1000 µM
- IC50 ([2]; 24 h): > 1000 µM
- IC50 ([2]; 48 h): > 1000 µM
- IC50 ([3]; SK-MEL-5, 24 h): > 1000 µM
- IC50 ([3]; SK-MEL-5, 48 h): > 1000 µM
- reduction in cell viability ([3]; SK-MEL-5, 1 mM, 24 h): 23.3%
- reduction in cell viability ([3]; SK-MEL-5, 1 mM, 48 h): 18.7%
- effect on cell viability ([4]; Caco-2, concentrations up to 1 mM, 24 h or 48 h): no significant reduction in cell viability
- IC50 ([4]; Caco-2, 24 h): > 1000 µM
- IC50 ([4]; Caco-2, 48 h): > 1000 µM
- effect on cells ([5]; HepG2, concentrations up to 1 mM): not affected
- IC50 ([5]; HepG2, 24 h): > 1000 µM
- IC50 ([5]; HepG2, 48 h): > 1000 µM
- IC50 ([6]; RAW264.7, 24 h): > 1000 µM
- IC50 ([6]; RAW264.7, 48 h): > 1000 µM
- effect on cell viability [7]: did not reduce cell viability
- effect on cell viability ([7]; listed as GLY): not able to induce cell death below 50%
- concentrations that disrupted Caco-2 monolayers (loss of membrane integrity) ([8]; conversion of mg/mL value): > 59000 µM
- concentrations that disrupted Caco-2 monolayers (loss of membrane integrity) [8]: higher than 10 mg/mL
- effect on cell proliferation ([9]; HepG2, up to 3.5 µg/mL (20.7 µM), 4 h and 24 h): slight increase in cell proliferation
- IC50 [10]: 11 µM
- IC50 ([11]; 18 h exposure): 30000 µM
- solubility in organic solvents [12]: very low solubility in organic solvents

Structure (SMILES): C=CCOC(Cn1ccnc1)c1ccc(Cl)cc1Cl (centres unmarked) [Imazalil, imazalil]
- IC50 ([1]; A-431, A431, 24 h exposure, mean ± S.D., read-out: IC50): 145 ± 1.7 µM
- IC50 ([1]; A-431, A431, 48 h exposure, mean ± S.D., read-out: IC50): 117 ± 6.5 µM
- IC50 ([2]; 24 h exposure, mean ± S.D., read-out: IC50): 174 ± 15.3 µM
- IC50 ([2]; 48 h exposure, mean ± S.D., read-out: IC50): 120 ± 6.2 µM
- viability at 48 h, 50 µM [13]: ~80%
- IC50 ([3]; SK-MEL-5, 24 h exposure, mean ± S.D., read-out: IC50): 156 ± 9 µM
- IC50 ([3]; SK-MEL-5, 48 h exposure, mean ± S.D., read-out: IC50): 76.7 ± 1.8 µM
- reduction in cell viability ([3]; SK-MEL-5, 50 µM, 48 h): about 20%
- viability at 48 h, 200 µM ([14]; Caco-2, 200 µM): 39.7%
- cell viability reduction ([4]; 24 h): 94.13%
- cell viability reduction ([4]; 48 h): 98.06%
- IC50 ([4]; Caco-2, 24 h exposure, mean ± S.D., read-out: IC50): 254 ± 3.4 µM
- IC50 ([4]; Caco-2, 48 h exposure, mean ± S.D., read-out: IC50): 186 ± 2.27 µM
- concentration at which a significant reduction in cell viability was observed ([5]; HepG2): 50 µM
- IC50 ([5]; HepG2, 24 h exposure, mean ± S.D., read-out: IC50): 93.7 ± 2.2 µM
- IC50 ([5]; HepG2, 48 h exposure, mean ± S.D., read-out: IC50): 47.1 ± 0.5 µM
- IC50 ([6]; RAW264.7, RAW 264.7, 24 h exposure, mean ± S.D., read-out: IC50): 31.3 ± 2.7 µM
- IC50 ([6]; RAW264.7, RAW 264.7, 48 h exposure, mean ± S.D., read-out: IC50): 7.21 ± 4.5 µM
- IC50 ([8]; conversion of µg/mL value, read-out: IC50): ~100 µM
- IC50 [8]: 30 µg/mL
- log Pow [15]: 4.56
- H-donor acceptor count [16]: 2
- pKa [17]: 6.53
- CYP3A4 inhibition [18]: inhibit CYP3A4

Structure (SMILES): O=[N+]([O-])NC1=NCCN1Cc1ccc(Cl)nc1 [Imidacloprid, imidacloprid]
- IC50 ([1]; A-431, 24 h): 573 ± 10.4 µM
- IC50 ([1]; A-431, 48 h): 389 ± 9.2 µM
- IC50 ([2]; 24 h): 495 ± 19.4 µM
- IC50 ([2]; 48 h): 482 ± 12.9 µM
- IC50 ([3]; SK-MEL-5, 24 h): 507 ± 22.1 µM
- IC50 ([3]; SK-MEL-5, 48 h): 319 ± 11.5 µM
- reduction in cell viability ([3]; SK-MEL-5, 600 µM, 48 h): ~ 88%
- viability at 48 h, 600 µM ([14]; Caco-2, 600 µM, read-out: cell viability (% of control)): 68.5%
- viability at 48 h, 1 mM ([14]; Caco-2, 1 mM, read-out: cell viability (% of control)): 27.3%
- IC50 ([4]; Caco-2, 24 h): > 1000 µM
- IC50 ([4]; Caco-2, 48 h): 832 ± 29.6 µM
- IC50 ([5]; HepG2, 24 h): 624 ± 24.3 µM
- IC50 ([5]; HepG2, 48 h): 620 ± 10.6 µM
- IC50 ([6]; RAW264.7, 24 h): 306 ± 22.4 µM
- IC50 ([6]; RAW264.7, 48 h): 307 ± 22.1 µM
- cell viability ([8]; Caco-2, 96 h, 0.25 µg/mL): 81%
- concentrations cytotoxic / reducing cell viability ([8]; Caco-2, 96 h, conversion of µg/mL value): > 0.98 µM
- concentrations cytotoxic / reducing cell viability ([8]; Caco-2, 96 h, formulation from Bayer): above 0.25 µg/mL
- concentration range dose-dependently reducing cell viability ([9]; HepG2, 24 h): 500 to 2000 µM
- concentration range dose-dependently reducing cell viability ([9]; HepG2, 48 h): 250 to 2000 µM
- concentration reducing cell viability below 50% ([11]; 24 h): 2350 µM
- log Pow [15]: 0.57
- H-donor acceptor count [16]: 4
